Experimental data from PubChem BioAssay (NCI).
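Protocol summary: plate cells (96-well), add compound at 5 concentrations, incubate 48 h, interpolate endpoints linearly. At the GI50, growth is halved. At the TGI there is no net growth.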

Experiments:
Test in all cases: NCI-60 cell line screen, 48 h
OVCAR-4 ovarian = system: OVCAR-4 ovarian
SF-268 CNS = system: SF-268 CNS
HS 578T breast = system: HS 578T breast
KM12 colon = system: KM12 colon
NCI-H226 lung = system: NCI-H226 lung
U251 CNS = system: U251 CNS
MALME-3M melanoma = system: MALME-3M melanoma
HCC-2998 colon = system: HCC-2998 colon
UO-31 renal = system: UO-31 renal
RPMI-8226 leukemia = system: RPMI-8226 leukemia
MDA-MB-468 breast = system: MDA-MB-468 breast
MDA-MB-435 = system: MDA-MB-435
EKVX NSCLC = system: EKVX NSCLC
M14 melanoma = system: M14 melanoma
OVCAR-5 ovarian = system: OVCAR-5 ovarian
MDA-MB-231 breast = system: MDA-MB-231 breast
UACC-62 melanoma = system: UACC-62 melanoma
MCF7 breast = system: MCF7 breast
SK-MEL-28 melanoma = system: SK-MEL-28 melanoma
NCI-H23 lung = system: NCI-H23 lung
SF-539 CNS = system: SF-539 CNS
LOX IMVI melanoma = system: LOX IMVI melanoma
CCRF-CEM leukemia = system: CCRF-CEM leukemia
DU-145 prostate = system: DU-145 prostate
A498 renal = system: A498 renal
K-562 leukemia = system: K-562 leukemia
NCI-H460 lung = system: NCI-H460 lung
SNB-19 CNS = system: SNB-19 CNS
786-0 renal = system: 786-0 renal
MOLT-4 leukemia = system: MOLT-4 leukemia
HT29 colon = system: HT29 colon
SK-MEL-2 melanoma = system: SK-MEL-2 melanoma
CAKI-1 renal = system: CAKI-1 renal
HL-60(TB) leukemia = system: HL-60(TB) leukemia
SK-MEL-5 melanoma = system: SK-MEL-5 melanoma
RXF 393 renal = system: RXF 393 renal
HOP-62 NSCLC = system: HOP-62 NSCLC
A549 NSCLC = system: A549 NSCLC
SK-OV-3 ovarian = system: SK-OV-3 ovarian
BT-549 breast = system: BT-549 breast
HOP-92 NSCLC = system: HOP-92 NSCLC
IGROV1 ovarian = system: IGROV1 ovarian
SW-620 colon = system: SW-620 colon
PC-3 prostate = system: PC-3 prostate
SN12C renal = system: SN12C renal
OVCAR-8 ovarian = system: OVCAR-8 ovarian
OVCAR-3 ovarian = system: OVCAR-3 ovarian
NCI-H522 lung = system: NCI-H522 lung
T-47D breast = system: T-47D breast
HCT-116 colon = system: HCT-116 colon
COLO 205 colon = system: COLO 205 colon
TK-10 renal = system: TK-10 renal
UACC-257 melanoma = system: UACC-257 melanoma
SF-295 CNS = system: SF-295 CNS
HCT-15 colon = system: HCT-15 colon
ACHN renal = system: ACHN renal
SR leukemia = system: SR leukemia

## CN(C)c1nc(NCCNS(=O)(=O)c2ccc(C(=O)/C=C/c3ccc(C(F)(F)F)cc3)cc2)nc(N2CCOCC2)n1
OVCAR-4 ovarian
  GI50: 14.8 µM
  TGI: 28.9 µM
SF-268 CNS
  GI50: 16.3 µM
  TGI: 37.8 µM
HS 578T breast
  GI50: 17.8 µM
  TGI: 64.4 µM
KM12 colon
  GI50: 8.95 µM
  TGI: 25.5 µM
NCI-H226 lung
  GI50: 16.1 µM
  TGI: 35.6 µM
U251 CNS
  GI50: 2.95 µM
  TGI: 11 µM
MALME-3M melanoma
  GI50: 14.4 µM
  TGI: 27.6 µM
HCC-2998 colon
  GI50: 12.9 µM
  TGI: 26 µM
UO-31 renal
  GI50: 11.9 µM
  TGI: 24.2 µM
RPMI-8226 leukemia
  GI50: 1.77 µM
  TGI: 5.72 µM
MDA-MB-468 breast
  GI50: 5.11 µM
  TGI: 18.4 µM
MDA-MB-435
  GI50: 10.3 µM
  TGI: 23 µM
EKVX NSCLC
  GI50: 14.3 µM
  TGI: 27.4 µM
M14 melanoma
  GI50: 9.83 µM
  TGI: 22.2 µM
OVCAR-5 ovarian
  GI50: 14.5 µM
  TGI: 27.7 µM
MDA-MB-231 breast
  GI50: 11.7 µM
  TGI: 24.2 µM
UACC-62 melanoma
  GI50: 11.2 µM
  TGI: 23.3 µM
MCF7 breast
  GI50: 1.68 µM
  TGI: 3.34 µM
SK-MEL-28 melanoma
  GI50: 14.4 µM
  TGI: 27.5 µM
NCI-H23 lung
  GI50: 13 µM
  TGI: 26.2 µM
SF-539 CNS
  GI50: 13 µM
  TGI: 25.7 µM
LOX IMVI melanoma
  GI50: 1.68 µM
  TGI: 3.16 µM
CCRF-CEM leukemia
  GI50: 3.2 µM
  TGI: > 100 µM
DU-145 prostate
  GI50: 15.4 µM
  TGI: 28.9 µM
A498 renal
  GI50: 13.3 µM
  TGI: 26.6 µM
K-562 leukemia
  GI50: 3.21 µM
  TGI: > 100 µM
NCI-H460 lung
  GI50: 16.1 µM
  TGI: 32.5 µM
SNB-19 CNS
  GI50: 13.5 µM
  TGI: 26.4 µM
786-0 renal
  GI50: 14.5 µM
  TGI: 28.2 µM
MOLT-4 leukemia
  GI50: 3.48 µM
  TGI: > 100 µM
HT29 colon
  GI50: 2.06 µM
  TGI: 4.51 µM
SK-MEL-2 melanoma
  GI50: 16.3 µM
  TGI: 30.4 µM
CAKI-1 renal
  GI50: 11.4 µM
  TGI: 24.3 µM
HL-60(TB) leukemia
  GI50: 5.12 µM
  TGI: 86.3 µM
SK-MEL-5 melanoma
  GI50: 15.8 µM
  TGI: 29.5 µM
RXF 393 renal
  GI50: 11.5 µM
  TGI: 23.7 µM
HOP-62 NSCLC
  GI50: 17 µM
  TGI: 32.3 µM
A549 NSCLC
  GI50: 13.8 µM
  TGI: 29.3 µM
SK-OV-3 ovarian
  GI50: 14.7 µM
  TGI: 29.5 µM
BT-549 breast
  GI50: 15.6 µM
  TGI: 29.3 µM
HOP-92 NSCLC
  GI50: 15.2 µM
  TGI: 31.5 µM
IGROV1 ovarian
  GI50: 1.77 µM
  TGI: 3.51 µM
SW-620 colon
  GI50: 3.3 µM
  TGI: 11.1 µM
PC-3 prostate
  GI50: 10.8 µM
  TGI: 25.4 µM
SN12C renal
  GI50: 12.5 µM
  TGI: 25 µM
OVCAR-8 ovarian
  GI50: 14.4 µM
  TGI: 28.1 µM
OVCAR-3 ovarian
  GI50: 16.4 µM
  TGI: 30.6 µM
NCI-H522 lung
  GI50: 15.2 µM
  TGI: 29.8 µM
T-47D breast
  GI50: 5.5 µM
  TGI: 27.2 µM
HCT-116 colon
  GI50: 3.19 µM
  TGI: 10 µM
COLO 205 colon
  GI50: 15 µM
  TGI: 32.4 µM
TK-10 renal
  GI50: 15.5 µM
  TGI: 29.5 µM
UACC-257 melanoma
  GI50: 15.3 µM
  TGI: 29.4 µM
SF-295 CNS
  GI50: 8.11 µM
  TGI: 20.6 µM
HCT-15 colon
  GI50: 1.86 µM
  TGI: 3.62 µM
ACHN renal
  GI50: 8.6 µM
  TGI: 20.7 µM
SR leukemia
  GI50: 6.31 µM
  TGI: > 100 µM
